The source made the active and inactive calls.
Columns and labels:
Cytochrome P450 3A4 = Cytochrome P450 3A4 (Homo sapiens, UniProt P08684); settings: Potency;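 also: confirmatory qHTS run detecting inhibitors and substrates of CYP3A4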
Troponin, cardiac muscle = Troponin, cardiac muscle (Homo sapiens, UniProt P19429+P45379+P63316); assay: Fluorescence-based biochemical high throughput dose response assay for activators of the calcium sensitivity of cardiac Regulated Thin Filaments (RTF). [Related pubchem assays (depositor defined):AID493008, AID493018, AID504382, AID504383]; assay type: protein-complex assay
[1] = viability of uninfected HEp-2 cells – cell-based, HTS, cytotoxicity control for RSV inhibitor project, dose response (AID 2410); assay type: functional; settings: human respiratory syncytial virus
[2] = biological target: G-protein coupled receptor 55 (Homo sapiens, UniProt Q9Y2T6); assay: selective activators of receptor GPR55 – imaging, U2OS cells, beta-arrestin-GFP redistribution, primary screen (AID 1961); assay type: functional
[3] = biological target: T1, Ubiquitin-conjugating enzyme E2 N (Homo sapiens, UniProt P61088); assay type: functional
T1 sequence (P61088 whole entry): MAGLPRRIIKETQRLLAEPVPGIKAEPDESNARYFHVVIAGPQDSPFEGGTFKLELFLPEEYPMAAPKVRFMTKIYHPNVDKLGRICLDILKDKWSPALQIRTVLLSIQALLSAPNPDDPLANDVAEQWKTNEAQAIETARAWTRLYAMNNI

Bcl-2-related protein A1 = biological target: T2, Bcl-2-related protein A1 (Mus musculus, UniProt Q07440); assay type: functional;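 also: confirmatory dose–response counterscreen on Bfl-1, used to check hits from a UBC13 polyubiquitin inhibitor campaign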
T2 sequence (Q07440 whole entry): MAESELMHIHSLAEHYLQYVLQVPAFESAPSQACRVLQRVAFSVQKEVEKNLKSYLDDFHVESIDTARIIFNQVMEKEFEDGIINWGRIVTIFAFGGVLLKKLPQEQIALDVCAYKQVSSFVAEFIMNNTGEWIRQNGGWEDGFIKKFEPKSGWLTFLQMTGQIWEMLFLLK

[4] = biological target: T1, Ubiquitin-conjugating enzyme E2 N; assay type: functional; remark: listed apart in the source
[5] = biological target: Neurotensin receptor type 1 (Homo sapiens, UniProt P30989); assay type: functional;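 also: Image-based confirmatory dose-response assay measuring agonist activity at NTR1; NTR1-expressing U2OS osteosarcoma cells imaged for beta-arrestin GFP spot formation; agonist potency where compounds increase beta-arrestin recruitment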
[6] = Luminescence Cell-Based Dose Retest to Confirm Inhibitors of Cancer Stem Cells. [Related pubchem assays (depositor defined):AID2717, AID2721]; assay type: functional; settings: Homo sapiens
[7] = biological target: T3, Lysosomal acid glucosylceramidase (Homo sapiens, UniProt P04062); assay: Dose response cell-based high throughput screening assay to identify enhancers of beta-glucosidase activity. [Related pubchem assays: 784 ]; assay type: functional
T3 sequence (P04062 whole entry): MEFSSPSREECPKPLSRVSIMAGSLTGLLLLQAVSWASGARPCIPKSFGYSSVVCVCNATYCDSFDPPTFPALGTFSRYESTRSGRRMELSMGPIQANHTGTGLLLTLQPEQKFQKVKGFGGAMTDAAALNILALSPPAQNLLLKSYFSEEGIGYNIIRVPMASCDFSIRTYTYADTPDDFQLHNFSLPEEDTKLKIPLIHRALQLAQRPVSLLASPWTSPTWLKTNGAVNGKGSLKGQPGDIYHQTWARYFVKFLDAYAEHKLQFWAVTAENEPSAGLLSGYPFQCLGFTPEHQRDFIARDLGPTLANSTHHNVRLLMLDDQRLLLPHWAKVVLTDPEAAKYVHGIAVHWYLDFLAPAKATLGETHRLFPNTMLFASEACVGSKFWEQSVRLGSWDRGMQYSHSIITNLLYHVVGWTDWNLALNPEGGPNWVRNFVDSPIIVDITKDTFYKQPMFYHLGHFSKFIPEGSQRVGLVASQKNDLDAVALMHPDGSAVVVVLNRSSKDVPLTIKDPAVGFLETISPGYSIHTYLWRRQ

[8] = biological target: DNA dC->dU-editing enzyme APOBEC-3G (Homo sapiens, UniProt Q9HC16); assay: Dose Response confirmation of small molecule APOBEC3G DNA Deaminase Inhibitors via a fluorescence-based single-stranded DNA deaminase assay. [Related pubchem assays (depositor defined):AID493012, AID493028]; assay type: functional
[9] = NIH3T3 cell viability loss – ATP luminescence, mouse fibroblasts, counter-screen, dose response (AID 2010); assay type: functional, cell-based;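 also: cells exposed to compound for about 90 hours before reading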
[10] = biological target: Induced myeloid leukemia cell differentiation protein Mcl-1 (Homo sapiens, UniProt Q07820); assay type: functional
[11] = Trypanosoma cruzi growth suppression in host cells – NIH3T3 host cells, beta-gal luminescence, confirmation (AID 2044); assay type: functional, cell-based;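 also: intracellular parasites grown in NIH/3T3 mouse fibroblasts as host cells; luminescent beta-galactosidase reporter signal from transgenic T. cruzi replicating inside host cells; inhibitors lower the luminescence signal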
Cytochrome P450 1A2 = biological target: T4, Cytochrome P450 1A2 (Homo sapiens, UniProt P05177);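 also: PubChem cytochrome P450 panel assay, CYP1A2 panel member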
T4 sequence (P05177 whole entry): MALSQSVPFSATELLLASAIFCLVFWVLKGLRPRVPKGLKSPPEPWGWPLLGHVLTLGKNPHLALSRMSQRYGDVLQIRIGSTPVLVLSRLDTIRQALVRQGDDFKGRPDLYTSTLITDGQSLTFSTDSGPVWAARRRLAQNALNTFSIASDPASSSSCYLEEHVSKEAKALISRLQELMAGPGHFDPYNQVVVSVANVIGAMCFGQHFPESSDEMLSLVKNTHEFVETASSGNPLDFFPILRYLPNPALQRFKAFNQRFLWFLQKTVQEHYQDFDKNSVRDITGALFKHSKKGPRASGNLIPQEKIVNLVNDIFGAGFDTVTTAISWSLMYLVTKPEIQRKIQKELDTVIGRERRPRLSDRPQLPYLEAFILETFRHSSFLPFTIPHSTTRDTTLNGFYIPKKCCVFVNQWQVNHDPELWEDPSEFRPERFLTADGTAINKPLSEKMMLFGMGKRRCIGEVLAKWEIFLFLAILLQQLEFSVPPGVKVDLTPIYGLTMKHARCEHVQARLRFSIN

Bcl-2-like protein 10 = biological target: T5, Bcl-2-like protein 10 (Homo sapiens, UniProt Q9HD36); assay: Bcl-B/TR3 peptide binding disruption – biochemical, fluorescence polarization, FITC-TR3 peptide, selectivity assay for Bfl-1 inhibitor project, primary screen (AID 748);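 also: fluorescence polarization from a fluorescein-labelled TR3 peptide binding purified Bcl-B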
T5 sequence (Q9HD36 whole entry): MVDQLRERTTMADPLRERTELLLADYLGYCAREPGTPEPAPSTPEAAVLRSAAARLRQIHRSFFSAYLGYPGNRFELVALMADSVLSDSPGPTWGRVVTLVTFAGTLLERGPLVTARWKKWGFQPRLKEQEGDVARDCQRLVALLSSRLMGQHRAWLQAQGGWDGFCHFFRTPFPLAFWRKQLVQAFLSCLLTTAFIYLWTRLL

[12] = biological target: Glyceraldehyde-3-phosphate dehydrogenase (Homo sapiens, UniProt P04406)
[13] = microbe, parasite or virus in culture; assay type: functional; settings: Mycobacterium tuberculosis
cells [14] = assay type: functional
[15] = Vero E6 cell cytotoxicity, dose response, cytotoxicity control for non-replicating M. tuberculosis project, secondary assay (AID 492998); assay type: functional, VeroE6; settings: Vero C1008
[16] = THP-1 cell cytotoxicity, dose response, cytotoxicity control for non-replicating M. tuberculosis project (AID 489025); assay type: functional
INS1 = assay: INS-1E survival protection against cytokine death – cell-based, luminescence, retest, dose response (AID 449756); assay type: functional; settings: Rattus norvegicus;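 also: cell death triggered by IL-1 beta plus TNF-alpha plus IFN-gamma mixture; protective hits raise ATP signal compared with cytokine alone wells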
[17] = biological target: Heat shock protein HSP 90-alpha (Homo sapiens, UniProt P07900); assay type: functional, organism-based
HEK293 [18] = assay: cells; assay type: functional, cell-based; settings: Homo sapiens
HEK293 [19] = assay: inhibition of NOD1-driven NF-kB reporter – cell-based, luminescence, uHTS, primary screen (AID 1578); assay type: functional; settings: Homo sapiens
[20] = fluconazole-exposed Candida albicans growth modulators – fluorescence, retest, confirmation (AID 2467); assay type: functional, cell-based
cells [21] = assay type: functional, cell-based
[22] = system: Streptococcus sp. 'group A'; assay: Streptococcus pyogenes SK(-)GAS viability under kanamycin – luminescence, BacTiterGlo, confirmation, counter-screen for streptokinase expression inhibitor project, dose response (AID 1900); assay type: functional, organism-based
HEK293 [23] = assay: cells; assay type: functional, cell-based; settings: Homo sapiens; remark: listed apart in the source
[24] = NIH-3T3 fibroblast cytotoxicity, dose response, cytotoxicity control, cell-based, fluorescence, Alamar Blue, secondary assay (AID 2327); assay type: functional;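 also: NIH-3T3 mouse fibroblasts cultured with fluconazole at 8 µg/mL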
[25] = biological target: Nucleotide-binding oligomerization domain-containing protein 2 (Homo sapiens, UniProt Q9HC29); assay: inhibition of NOD2-driven NF-kB reporter – cell-based, luminescence, uHTS, HEK293 (AID 1566); assay type: functional
cells [26] = assay type: functional, cell-based; remark: listed apart in the source
Streptococcus = assay: GAS UMAA2166 growth inhibition – luminescence, BacTiterGlo, counter-screen for streptokinase expression inhibitor project, dose response (AID 1915); assay type: functional, organism-based;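 also: potency for reduction of bacterial viability or growth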
HEK293 [27] = assay: NOD2 signaling inhibitors in MDP-stimulated cells, cell-based, uHTS, luminescence (AID 2001); assay type: functional; settings: Homo sapiens

CN1C[C@@H]2C(c3ccc(Cl)nc3)C3(c4ccc(C#N)cc4)CC2(C3)[C@H]1c1ccccc1 (stereo partly specified)
AC50 (Cytochrome P450 3A4): 15.8 µM (inconclusive)

O=C(O)c1ccccc1CSc1nnnn1-c1ccccc1
EC50 (Troponin, cardiac muscle): > 71.5 µM (inactive)

CCOC(=O)c1nnc(-c2ccc(C)cc2)nc1Oc1ccc(Cl)cc1Cl
CC50 [1]: 14.1 µM (active) | EC50 [2]: 12.4 µM (inactive)

CCOC(=O)c1c(C)cc(OC)cc1O [ETHYL EVERNINATE]
AC50 (Cytochrome P450 3A4): 31.6 µM (inconclusive)

O=C(CSCc1ccc([N+](=O)[O-])cc1)N/N=C/c1ccncc1
IC50 [3]: 17.3 µM (active) | IC50 (Bcl-2-related protein A1): > 20 µM (inactive) | IC50 [4]: > 20 µM (inactive)

CC1CCN(CCCNC(=O)c2ccc3c(=O)n(Cc4ccc(Cl)cc4)c(=S)[nH]c3c2)CC1
IC50 [3]: > 20 µM (inactive) | EC50 [5]: 17.9 µM (active) | AC50 [6]: 6.37 µM (active)

C=CCOc1ccc(Br)cc1CNCC
EC50 (Troponin, cardiac muscle): > 71.5 µM (inactive)

CCOc1ccc(C2CC(c3c(O)oc4ccccc4c3=O)=NN2c2ccccc2)cc1OC (stereo unspecified)
EC50 [2]: 8.61 µM (active)

Cc1ccccc1OCC(=O)N(Cc1cccs1)C1CCS(=O)(=O)C1 (stereo unspecified)
EC50 [7]: > 50 µM (not active)

Cc1[nH]c(=O)[nH]c(=S)c1C(=O)Nc1ccc(Cl)c(Cl)c1
IC50 [8]: 9.67 µM (active)

COc1ccc(N)c(OC)c1
AC50 (Cytochrome P450 3A4): 25.1 µM (inconclusive)

C=CCn1c(S)nnc1-c1c[nH]c2ccccc12
EC50 [7]: > 50 µM (not active)

Cc1nc(NC(=O)c2ccco2)sc1-c1csc(Nc2ccc(Cl)cc2Cl)n1
EC50 [9]: > 60 µM (not active) | IC50 [10]: 1.56 µM (active) | EC50 [11]: 0.537 µM (active) | AC50 (Cytochrome P450 1A2): 15.8 µM (inconclusive) | IC50 (Bcl-2-like protein 10): > 100 µM (inactive)

O=C(O)CSc1nc(-c2ccccc2)cs1
IC50 [12]: > 100 µM (not active)

Cc1cc(C)nc(Nc2ccc(N3CCCC3)cc2)n1
IC50 (Bcl-2-like protein 10): 61.9 µM (inactive)

O=C(c1ccc(S(=O)(=O)N2CCCC2)cc1)N1CCC(CN2C(=O)c3cccc4cccc(c34)C2=O)CC1
IC50 [3]: 6.28 µM (active) | IC50 (Bcl-2-related protein A1): > 20 µM (inactive) | IC50 [4]: 8.21 µM (active)

Nc1ccccc1C#CC(=O)c1ccccc1
EC50 [5]: 8.09 µM (active) | CC50 [13]: 16.9 µM (active) | IC50 (cells [14]): 4.2 µM (active) | CC50 [15]: 17.4 µM (active) | CC50 [16]: 23.5 µM (active) | AC50 (INS1): 7.81 µM (active) | AC50 [17]: 5.42 µM (active)

COc1cccc(/C=N/NC(=O)c2c(C)nc3ccc(Cl)cn23)c1O
IC50 (HEK293 [18]): > 20 µM (inactive) | EC50 (HEK293 [19]): > 20 µM (inactive) | EC50 [20]: 1.36 µM (active) | EC50 (cells [21]): > 350 µM (not active) | EC50 [22]: 3.25 µM (active) | IC50 (HEK293 [23]): > 20 µM (inactive) | EC50 [24]: > 160 µM (inactive) | EC50 [25]: > 20 µM (inactive) | EC50 (cells [26]): 6.42 µM (active) | AC50 (INS1): 0.879 µM (active) | EC50 (Streptococcus): 7.14 µM (active) | IC50 (HEK293 [27]): > 20 µM (inactive)
